Columns and labels:
[1] = molecular target: T1, composite Cel-L-AChR with Hco-UNC-38 (29/63/L1/L8 + Hco-UNC-38); assay: two-electrode voltage clamp, Xenopus oocytes; assay type: cell-based, Caenorhabditis elegans; Haemonchus contortus; details: read-out: Lev EC50; agonist; responses normalized to 100 μM ACh
T1 construct: mixed-species complex of whole subunits; cRNA in Xenopus laevis oocytes with ancillary RIC-3, UNC-50, UNC-74; Cel-UNC-38 replaced by H. contortus UNC-38

[2] = molecular target: T2, composite Cel-L-AChR with Ode-ACR-8 (29/38/63/L1 + Ode-ACR-8); assay: two-electrode voltage clamp, Xenopus oocytes; assay type: cell-based, Caenorhabditis elegans; Oesophagostomum dentatum; details: read-out: Lev EC50; full agonist; responses normalized to 100 μM ACh
T2 construct: mixed-species complex of whole subunits; cRNA in Xenopus laevis oocytes with C. elegans RIC-3, UNC-50, UNC-74; LEV-8 replaced by O. dentatum ACR-8

[3] = molecular target: T3, composite Cel-L-AChR with Asu-ACR-8 (29/38/63/L1 + Asu-ACR-8); assay: two-electrode voltage clamp, Xenopus oocytes; assay type: cell-based, Caenorhabditis elegans; Ascaris suum; details: read-out: Lev EC50; agonist; responses normalized to 100 μM ACh
T3 construct: mixed-species complex of whole subunits; cRNA in Xenopus laevis oocytes with C. elegans RIC-3, UNC-50, UNC-74; LEV-8 replaced by A. suum ACR-8

[4] = molecular target: T4, Cel-L-AChR (29/38/63/L1 + Cel-LEV-8); assay: two-electrode voltage clamp, Xenopus oocytes; assay type: cell-based, Caenorhabditis elegans; details: partial agonist; responses normalized to 100 μM ACh
T4 construct: gene unc-38; full-length subunits from cRNA in Xenopus laevis oocytes with ancillary C. elegans RIC-3, UNC-50, UNC-74; heteropentamer

[5] = molecular target: T5, composite Cel-L-AChR with Min-ACR-8 (29/38/63/L1 + Min-ACR-8); assay: two-electrode voltage clamp, Xenopus oocytes; assay type: cell-based, Caenorhabditis elegans; Meloidogyne incognita; details: agonist; responses normalized to 100 μM ACh; read-out: Lev EC50
T5 construct: mixed-species complex of whole subunits; cRNA in Xenopus laevis oocytes with C. elegans RIC-3, UNC-50, UNC-74; LEV-8 replaced by M. incognita ACR-8

[6] = molecular target: T6, composite Cel-L-AChR with Hco-ACR-8 (29/38/63/L1 + Hco-ACR-8); assay: two-electrode voltage clamp, Xenopus oocytes; assay type: cell-based, Caenorhabditis elegans; Haemonchus contortus; details: read-out: Lev EC50; full agonist; responses normalized to 100 μM ACh
T6 construct: mixed-species complex of whole subunits; cRNA in Xenopus laevis oocytes with C. elegans RIC-3, UNC-50, UNC-74; LEV-8 replaced by H. contortus ACR-8

[7] = molecular target: T7, composite Cel-L-AChR with Hco-UNC-63 (29/38/L1/L8 + Hco-UNC-63); assay: two-electrode voltage clamp, Xenopus oocytes; assay type: cell-based, Caenorhabditis elegans; Haemonchus contortus; details: read-out: Lev EC50; agonist; responses normalized to 100 μM ACh
T7 construct: mixed-species complex of whole subunits; cRNA in Xenopus laevis oocytes with ancillary RIC-3, UNC-50, UNC-74; Cel-UNC-63 replaced by H. contortus UNC-63

[8] = test system: T4, Cel-L-AChR (29/38/63/L1 + Cel-LEV-8); parameters: species or system Xenopus laevis oocytes; Agonist-evoked currents in cRNA-injected oocytes, concentration-response normalized to 100 uM ACh; details: Imax as % of 100 uM ACh response; agonist
Excerpt: (§1) The C. elegans L-AChR can be robustly expressed in Xenopus oocytes by co-expressing cRNAs from the five L-AChR subunits (UNC-38, UNC-63, UNC-29, LEV-1 and LEV-8) in combination with cRNA encoding three ancillary proteins (UNC-74, UNC-50 and RIC-3). Noticeably, the absence of any one of these AChR subunits or ancillary proteins from the injected cRNA mix leads to the loss of expression of functional receptor highlighting their major individual requirement. Taking advantage of this, we complemented the Cel-L-AChR by replacing the Cel-LEV-8 by ACR-8 subunits from distinct parasitic nematode species. As a preliminary set of experiments, cRNAs encoding ACR-8 from parasitic nematodes were micro-injected with the three ancillary proteins in order to test their ability to form a homomeric channel. […] Therefore, cRNAs encoding Cel-UNC-38, Cel-UNC-63, Cel-UNC-29, Cel-LEV-1, Cel-UNC-74, Cel-UNC-50 and Cel-RIC-3 in combination with either Hco-ACR-8 / Ode-ACR-8 / Asu-ACR-8 / Dim-ACR-8 / Min-ACR-8 were co-injected into Xenopus oocytes. Three days after injection, each of these combinations produced robust responses to 100μM ACh in oocytes (S3 Fig). Similarly, application of 100μM levamisole (Lev) elicited a response for all complemented Cel-L-AChRs. Dose response curves were generated for both ACh and Lev in complemented L-AChRs containing ACR-8 subunits from parasitic species (Fig 2 and Table 1). In comparison to the C. elegans L-AChR, we observed a drastic reduction of the ACh EC50 values in the composite L-AChRs complemented with Hco-ACR-8, Ode-ACR-8, Asu-ACR-8 and Dim-ACR-8. […] A. Representation of the putative arrangement of the C. elegans L-AChR subunits expressed in Xenopus oocytes and dose-response relationships for ACh (red triangle, n = 8) and Lev (white circle, n = 8). B-F. Representation of the putative subunit arrangement of the composite C. elegans L-AChRs including Cel-UNC-29, Cel-UNC-38, Cel-UNC-63, Cel-LEV-1 and the ACR-8 subunit from a parasitic nematode species: H. contortus ACR-8 (B), O. dentatum ACR-8 (C), A. suum ACR-8 (D), D. immitis ACR-8 (E) and M. incognita ACR-8 (F). Dose-response relationships for ACh and Lev are indicated by red triangles (n = 5–11) and white circles (n = 4–9), respectively. G-H. Representation of the putative subunit arrangement of the composite C. elegans L-AChRs with Hco-UNC-38 replacing Cel-UNC-38 (G) or Hco-UNC-63 replacing Cel-UNC-63 (H). Dose-response relationships for ACh and Lev are indicated by red triangles (n = 7–10) and white circles (n = 7–9), respectively. All responses are normalized to 100μM ACh. Results are shown as the mean ± se. […]

[9] = test system: T3, composite Cel-L-AChR with Asu-ACR-8 (29/38/63/L1 + Asu-ACR-8); parameters: species or system Xenopus laevis oocytes; Agonist-evoked currents in cRNA-injected oocytes, concentration-response normalized to 100 uM ACh; details: Imax as % of 100 uM ACh response; agonist
Excerpt: as §1

[10] = test system: T7, composite Cel-L-AChR with Hco-UNC-63 (29/38/L1/L8 + Hco-UNC-63); parameters: species or system Xenopus laevis oocytes; Agonist-evoked currents in cRNA-injected oocytes, concentration-response normalized to 100 uM ACh; details: Imax as % of 100 uM ACh response; agonist
Excerpt: as §1

[11] = test system: T5, composite Cel-L-AChR with Min-ACR-8 (29/38/63/L1 + Min-ACR-8); parameters: species or system Xenopus laevis oocytes; Agonist-evoked currents in cRNA-injected oocytes, concentration-response normalized to 100 uM ACh; details: Imax as % of 100 uM ACh response; agonist
Excerpt: as §1

[12] = test system: composite Cel-L-AChR with Hco-UNC-38 (29/63/L1/L8 + Hco-UNC-38); parameters: species or system Xenopus laevis oocytes; details: Imax as % of 100 uM ACh response; agonist
[13] = test system: composite Cel-L-AChR with Hco-ACR-8 (29/38/63/L1 + Hco-ACR-8); parameters: species or system Xenopus laevis oocytes; details: Imax as % of 100 uM ACh response; agonist
[14] = test system: composite Cel-L-AChR with Ode-ACR-8 (29/38/63/L1 + Ode-ACR-8); parameters: species or system Xenopus laevis oocytes; details: Imax as % of 100 uM ACh response; agonist

T3 sequence (A0A2I6TEN1 25-521): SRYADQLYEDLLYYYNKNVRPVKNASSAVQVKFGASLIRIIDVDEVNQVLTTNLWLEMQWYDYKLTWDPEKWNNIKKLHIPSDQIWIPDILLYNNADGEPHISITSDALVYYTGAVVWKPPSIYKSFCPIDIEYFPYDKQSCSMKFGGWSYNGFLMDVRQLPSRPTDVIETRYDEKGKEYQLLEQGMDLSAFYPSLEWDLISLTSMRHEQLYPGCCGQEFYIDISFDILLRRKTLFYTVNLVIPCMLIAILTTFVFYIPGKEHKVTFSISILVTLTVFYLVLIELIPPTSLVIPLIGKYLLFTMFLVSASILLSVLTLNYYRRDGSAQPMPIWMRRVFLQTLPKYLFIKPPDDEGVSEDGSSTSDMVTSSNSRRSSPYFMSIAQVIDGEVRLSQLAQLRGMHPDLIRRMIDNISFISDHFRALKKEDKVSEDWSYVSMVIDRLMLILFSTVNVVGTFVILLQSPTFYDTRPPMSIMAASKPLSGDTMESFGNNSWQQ
T3 sequence (Q23022 17-511, further chain): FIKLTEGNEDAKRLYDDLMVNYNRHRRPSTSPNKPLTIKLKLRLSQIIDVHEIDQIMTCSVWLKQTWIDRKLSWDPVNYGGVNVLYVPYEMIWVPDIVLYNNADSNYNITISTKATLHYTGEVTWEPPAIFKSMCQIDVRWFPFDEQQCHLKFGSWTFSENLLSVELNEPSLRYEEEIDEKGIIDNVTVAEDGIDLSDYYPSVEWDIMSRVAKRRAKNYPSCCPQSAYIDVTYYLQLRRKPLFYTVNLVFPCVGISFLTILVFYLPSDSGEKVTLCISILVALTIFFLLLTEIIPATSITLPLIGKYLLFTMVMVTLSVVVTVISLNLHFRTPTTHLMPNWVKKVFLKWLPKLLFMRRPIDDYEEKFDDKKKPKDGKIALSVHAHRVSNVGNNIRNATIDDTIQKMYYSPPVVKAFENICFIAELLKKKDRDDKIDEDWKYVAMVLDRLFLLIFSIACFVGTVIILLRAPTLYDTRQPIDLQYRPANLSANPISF
T3 sequence (Q9N587 24-502, further chain): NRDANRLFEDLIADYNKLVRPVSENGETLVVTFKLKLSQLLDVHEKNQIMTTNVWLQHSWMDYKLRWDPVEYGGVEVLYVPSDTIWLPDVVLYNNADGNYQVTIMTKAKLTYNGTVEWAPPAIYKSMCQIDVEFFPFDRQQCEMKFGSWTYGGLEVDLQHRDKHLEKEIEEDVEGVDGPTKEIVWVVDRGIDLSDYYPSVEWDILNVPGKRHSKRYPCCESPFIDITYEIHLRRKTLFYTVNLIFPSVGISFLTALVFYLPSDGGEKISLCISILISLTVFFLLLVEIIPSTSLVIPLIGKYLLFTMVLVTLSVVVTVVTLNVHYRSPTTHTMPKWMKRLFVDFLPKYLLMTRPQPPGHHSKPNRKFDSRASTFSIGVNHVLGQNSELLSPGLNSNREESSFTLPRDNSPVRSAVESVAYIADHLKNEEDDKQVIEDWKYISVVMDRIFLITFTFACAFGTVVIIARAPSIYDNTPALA
T3 sequence (P48181 27-493, further chain): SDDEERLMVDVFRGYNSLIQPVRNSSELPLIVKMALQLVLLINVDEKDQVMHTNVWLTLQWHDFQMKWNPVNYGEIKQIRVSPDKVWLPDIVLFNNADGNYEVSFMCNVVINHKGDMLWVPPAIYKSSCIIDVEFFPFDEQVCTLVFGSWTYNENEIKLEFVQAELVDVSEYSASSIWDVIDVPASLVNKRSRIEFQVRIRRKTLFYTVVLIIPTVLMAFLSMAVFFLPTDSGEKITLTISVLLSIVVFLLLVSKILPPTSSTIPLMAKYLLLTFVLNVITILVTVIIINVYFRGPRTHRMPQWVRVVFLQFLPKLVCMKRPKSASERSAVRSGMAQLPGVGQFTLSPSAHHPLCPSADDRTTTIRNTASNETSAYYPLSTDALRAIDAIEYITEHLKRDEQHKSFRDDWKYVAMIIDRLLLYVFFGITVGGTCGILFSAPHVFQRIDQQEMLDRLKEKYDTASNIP
T3 sequence (Q27218 32-507, further chain): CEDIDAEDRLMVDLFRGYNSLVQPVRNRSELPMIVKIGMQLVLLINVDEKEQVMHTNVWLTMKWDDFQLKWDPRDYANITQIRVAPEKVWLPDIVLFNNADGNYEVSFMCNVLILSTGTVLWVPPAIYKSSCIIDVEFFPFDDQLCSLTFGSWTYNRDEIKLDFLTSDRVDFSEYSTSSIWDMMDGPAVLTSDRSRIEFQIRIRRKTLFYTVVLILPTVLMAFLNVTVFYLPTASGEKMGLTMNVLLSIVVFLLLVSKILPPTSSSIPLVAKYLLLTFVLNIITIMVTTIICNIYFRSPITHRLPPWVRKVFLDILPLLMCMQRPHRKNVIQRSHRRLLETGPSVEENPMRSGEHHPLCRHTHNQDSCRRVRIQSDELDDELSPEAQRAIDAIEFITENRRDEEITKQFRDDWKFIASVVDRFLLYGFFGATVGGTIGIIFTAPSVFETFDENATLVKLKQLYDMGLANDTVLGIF
T5 sequence (A0A2I6TEK4 19-527): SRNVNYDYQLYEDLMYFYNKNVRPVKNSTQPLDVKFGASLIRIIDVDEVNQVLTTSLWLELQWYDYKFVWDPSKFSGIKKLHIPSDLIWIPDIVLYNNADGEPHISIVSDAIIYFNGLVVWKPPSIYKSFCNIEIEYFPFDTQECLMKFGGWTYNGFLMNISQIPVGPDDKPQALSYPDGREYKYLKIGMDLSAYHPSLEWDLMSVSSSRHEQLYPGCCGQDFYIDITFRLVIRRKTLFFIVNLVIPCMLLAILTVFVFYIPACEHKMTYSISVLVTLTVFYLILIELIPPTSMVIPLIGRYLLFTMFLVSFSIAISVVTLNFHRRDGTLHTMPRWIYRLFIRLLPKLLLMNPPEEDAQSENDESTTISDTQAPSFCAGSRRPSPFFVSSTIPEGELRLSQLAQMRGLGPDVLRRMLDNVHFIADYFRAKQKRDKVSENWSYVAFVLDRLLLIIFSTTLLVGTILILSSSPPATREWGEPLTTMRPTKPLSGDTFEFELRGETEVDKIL
T5 sequence (Q23022 17-511, further chain): as the sequence (Q23022 17-511, further chain) above
T5 sequence (Q9N587 24-502, further chain): as the sequence (Q9N587 24-502, further chain) above
T5 sequence (P48181 27-493, further chain): as the sequence (P48181 27-493, further chain) above
T5 sequence (Q27218 32-507, further chain): as the sequence (Q27218 32-507, further chain) above
T4 sequence (Q23022 17-511): as the sequence (Q23022 17-511, further chain) above
T4 sequence (Q9N587 24-502, further chain): as the sequence (Q9N587 24-502, further chain) above
T4 sequence (P48181 27-493, further chain): as the sequence (P48181 27-493, further chain) above
T4 sequence (Q27218 32-507, further chain): as the sequence (Q27218 32-507, further chain) above
T4 sequence (Q93329 26-531, further chain): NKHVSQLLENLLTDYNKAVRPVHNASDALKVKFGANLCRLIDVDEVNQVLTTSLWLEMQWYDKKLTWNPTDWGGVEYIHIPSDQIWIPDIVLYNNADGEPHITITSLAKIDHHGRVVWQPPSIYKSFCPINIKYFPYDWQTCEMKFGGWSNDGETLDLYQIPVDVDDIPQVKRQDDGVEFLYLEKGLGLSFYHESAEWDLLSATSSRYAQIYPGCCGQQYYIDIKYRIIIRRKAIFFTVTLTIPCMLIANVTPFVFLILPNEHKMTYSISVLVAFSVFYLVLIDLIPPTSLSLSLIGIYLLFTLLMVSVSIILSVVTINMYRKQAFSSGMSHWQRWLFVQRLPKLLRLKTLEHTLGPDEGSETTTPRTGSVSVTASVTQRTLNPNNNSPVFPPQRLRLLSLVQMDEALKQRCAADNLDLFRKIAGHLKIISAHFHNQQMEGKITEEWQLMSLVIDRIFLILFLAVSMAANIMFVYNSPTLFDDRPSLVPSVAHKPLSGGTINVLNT
T7 sequence (D6MYF4 22-504): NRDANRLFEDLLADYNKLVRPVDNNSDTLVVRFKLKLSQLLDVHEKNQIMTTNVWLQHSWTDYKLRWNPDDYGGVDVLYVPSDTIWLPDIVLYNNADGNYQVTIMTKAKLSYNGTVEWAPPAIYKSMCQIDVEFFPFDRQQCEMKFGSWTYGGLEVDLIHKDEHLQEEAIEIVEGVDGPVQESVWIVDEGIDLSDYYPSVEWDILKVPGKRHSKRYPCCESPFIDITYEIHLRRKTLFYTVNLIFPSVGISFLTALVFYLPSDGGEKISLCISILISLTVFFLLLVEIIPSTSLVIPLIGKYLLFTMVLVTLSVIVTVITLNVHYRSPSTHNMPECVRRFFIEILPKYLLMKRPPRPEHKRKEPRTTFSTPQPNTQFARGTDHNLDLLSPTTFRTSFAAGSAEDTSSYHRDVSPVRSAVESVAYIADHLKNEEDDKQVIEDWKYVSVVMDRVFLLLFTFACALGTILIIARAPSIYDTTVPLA
T7 sequence (Q23022 17-511, further chain): as the sequence (Q23022 17-511, further chain) above
T7 sequence (P48181 27-493, further chain): as the sequence (P48181 27-493, further chain) above
T7 sequence (Q27218 32-507, further chain): as the sequence (Q27218 32-507, further chain) above
T7 sequence (Q93329 26-531, further chain): as the sequence (Q93329 26-531, further chain) above

Which results are given for c1ccc([C@H]2CN3CCSC3=N2)cc1 [levamisole]?
EC50 [1]: 13.5 ± 1.5 µM; EC50 [2]: 11.7 ± 1.3 µM; EC50 [3]: 5.8 ± 1.2 µM; EC50 [4]: 6.4 ± 1.2 µM; EC50 [5]: 10.1 ± 1.1 µM; EC50 [6]: 2.7 ± 1.4 µM; EC50 [7]: 12.1 ± 1.2 µM; Lev Imax [8]: 49.1±10.2%; Lev Imax [9]: 51.6 ±7.0%; Lev Imax [10]: 55.9 ±9.4%; Lev Imax [11]: 33.9 ±13.9%; Lev Imax [12]: 51.1 ±4.5%; Lev Imax [13]: 109.5 ±20.7%; Lev Imax [14]: 112.4 ±19.0%

Source: paper PMC5931475, “Deciphering the molecular determinants of cholinergic anthelmintic sensitivity in nematodes: When novel functional validation approaches highlight major differences between the model Caenorhabditis elegans and parasitic species” (PLoS Pathogens, 2018)
